{
  "source": "patent US12433876B2",
  "about": "“Septin inhibitors for treatment of cancers” (UNIVERSITY OF ROCHESTER, priority 2019, dated 2025)",
  "tested_on": "Cullin-3",
  "experiment": "Cell Cycle Antibody Array, PANC-1 cells",
  "type": "cell-based",
  "settings": "normalized to GAPDH",
  "description": "Cell Cycle Protein Expression. Cell Cycle Antibody Array (FullMoon BioSystems Inc, catalogue number: ACC:058), a high throughput ELISA based antibody array, designed for qualitative/semi-quantitative protein expression profiling was employed to investigate the protein changes after drug treatment. PANC-1 cells were lysed in buffer containing protease and phosphatase inhibitors (Cell Signaling, catalog number: 9803S). Total protein content was quantified by Bradford assay and equal amounts of proteins were analyzed in duplicate with arrays containing 4 to 6 spots for each of 60 probes (ACC058, Cell Cycle Antibody Array; Full Moon Biosystems, Sunnyvale, Calif.), according to manufacturer's instructions. After background correction, mean signal intensities were measured using FullMoon Inc's imaging services. Protein expressions in both the naïve and 328 treatment group was normalized to GAPDH signals. Confocal Analysis of Septin Disarrangement. To determine the impact of UR214-9 treatment on Septin-2 structure in cells, PANC-1 or JIMT-1 cells were seeded on glass slides and allowed to adhere overnight. The media was replaced with complete DMEM media supplemented with DMSO or UR214-9 (1 μM and 70 nM) and cells were incubated for 48 hours. […] The cells were stained with fluorescence linked secondary antibody for 1 hr under dark. […] Five cells were outlined and analyzed per field. […]",
  "data": [
    {"smiles": "O=C(Nc1cc(Cl)nc(Cl)c1)Nc1cccc(SC(F)(F)F)c1F", "note": "[UR214-9]", "values": [
      {"measurement": "Cullin-3 expression, treated versus naïve", "result": "most pronounced upregulation"}
    ]}
  ]
}
